The record followed here is ChEMBL document CHEMBL3853324, “Optimizing Protonation States for Selective Double-Strand DNA Photocleavage in Hypoxic Tumors: pH-Gated Transitions of Lysine Dipeptides” (J Med Chem, 2016).

The pKa is the pH at which an ionisable group is half protonated.

The structures appear in SMILES notation. Active and inactive are the calls of the source. No cut-off for these calls is given here. Where only a bound is given, the exact number is not on record here.

A short description of series [1]: Dissociation constant, pKa of the compound for first ionization at 10 uM by fluorescence analysis. Format: physicochemical.
A short description of series [2]: Dissociation constant, pKa of the compound in D2O for first ionization at 1 mM by H1-NMR analysis. Format: physicochemical.
The nature of series [3]: Dissociation constant, pKa of the compound in D2O for second ionization at 1 mM by H1-NMR analysis. Format: physicochemical.
For series [4], the species on record is Bos taurus. As to the kind of experiment: Binding affinity to calf thymus DNA assessed as binding constant at 15 uM and pH 6 by UV-spectroscopic analysis.
The species entered for series [5] is Bos taurus. The series is described as follows: Binding affinity to calf thymus DNA assessed as binding constant at 15 uM and pH 7 by UV-spectroscopic analysis.
Series [6] is filed under the species Bos taurus. As to the kind of experiment: Binding affinity to calf thymus DNA assessed as binding constant at 15 uM and pH 8 by UV-spectroscopic analysis.
Series [7] can be described thus: Displacement of ethidium bromide from DNA (unknown origin) assessed as Stem-Volmer quenching constant at pH 6 by UV-spectroscopic analysis. Set-up: unit not given here.
Series [8] can be described thus: Displacement of ethidium bromide from DNA (unknown origin) assessed as Stem-Volmer quenching constant at pH 7 by UV-spectroscopic analysis. Set-up: unit not given here.
A short description of series [9]: Displacement of ethidium bromide from DNA (unknown origin) assessed as Stem-Volmer quenching constant at pH 8 by UV-spectroscopic analysis. Set-up: unit not given here.
The species entered for series [10] is Bos taurus. As to the kind of experiment: Ratio of binding affinity to calf thymus DNA at pH 8 to binding affinity to calf thymus DNA at pH 6.
Series [11] has as its system Escherichia coli. The series is described as follows: Induction of Escherichia coli supercoiled pBR322 plasmid DNA photocleavage at 15 uM and pH 6 in presence of NaN3 by densitometric analysis.
In series [12] the test system is Escherichia coli. As to the kind of experiment: Induction of Escherichia coli supercoiled pBR322 plasmid DNA photocleavage at 15 uM and pH 6 in presence of DMSO by densitometric analysis.
In series [13] the test system is Escherichia coli. The series is described as follows: Induction of Escherichia coli supercoiled pBR322 plasmid DNA photocleavage at 15 uM and pH 6 in presence of glycerol by densitometric analysis.
The nature of series [14]: Dissociation constant, pKa of the compound for second ionization at 10 uM by fluorescence analysis. The class given is physicochemical.
Series [15] concerns Escherichia coli. As to the kind of experiment: Induction of Escherichia coli supercoiled pBR322 plasmid DNA photocleavage at 15 uM and pH 6 to 8 measured after 1 hr of UV-irradiation by densitometric analysis.
Series [16] has as its system Escherichia coli. As to the kind of experiment: Induction of Escherichia coli supercoiled pBR322 plasmid DNA photocleavage assessed as single stranded break formation per molecule at pH 6 at 15 uM measured after 4 mins of UV-irradiation by densitometric analysis.
For series [17], the system named is Escherichia coli. The series is described as follows: Induction of Escherichia coli supercoiled pBR322 plasmid DNA photocleavage assessed as single stranded break formation per molecule at pH 6 at 15 uM measured after 6 mins of UV-irradiation by densitometric analysis.
The subject of series [18] is Escherichia coli. The series is described as follows: Induction of Escherichia coli supercoiled pBR322 plasmid DNA photocleavage assessed as single stranded break formation per molecule at pH 6 at 15 uM measured after 8 mins of UV-irradiation by densitometric analysis.
Series [19] concerns Escherichia coli. As to the kind of experiment: Induction of Escherichia coli supercoiled pBR322 plasmid DNA photocleavage assessed as double stranded break formation per molecule at pH 6 at 15 uM measured after 4 mins of UV-irradiation by densitometric analysis.
Series [20] has as its system Escherichia coli. The series is described as follows: Induction of Escherichia coli supercoiled pBR322 plasmid DNA photocleavage assessed as double stranded break formation per molecule at pH 6 at 15 uM measured after 6 mins of UV-irradiation by densitometric analysis.
Series [21] deals with Escherichia coli. As to the kind of experiment: Induction of Escherichia coli supercoiled pBR322 plasmid DNA photocleavage assessed as double stranded break formation per molecule at pH 6 at 15 uM measured after 8 mins of UV-irradiation by densitometric analysis.
For series [22], the system named is Escherichia coli. As to the kind of experiment: Induction of Escherichia coli supercoiled pBR322 plasmid DNA photocleavage assessed as ratio of single stranded break to double stranded break formation per molecule at pH 6 at 15 uM measured after 6 mins of UV-irradiation by densitometric analysis.
The subject of series [23] is Escherichia coli. As to the kind of experiment: Induction of Escherichia coli supercoiled pBR322 plasmid DNA photocleavage assessed as ratio of single stranded break to double stranded break formation per molecule at pH 6 at 15 uM measured after 8 mins of UV-irradiation by densitometric analysis.
Series [24] deals with Escherichia coli. As to the kind of experiment: Induction of Escherichia coli supercoiled pBR322 plasmid DNA photocleavage assessed as ratio of single stranded break to double stranded break formation per molecule at pH 6 at 15 uM measured after 4 mins of UV-irradiation by densitometric analysis.
Series [25] deals with A-375. As to the kind of experiment: Induction of DNA damage in human A375 cells assessed as abasic site formation at 3 uM preincubated for 1 hr followed by UV-irradiation for 2 hrs. Format: functional.
Series [26] relates to A-375. The series is described as follows: Induction of DNA damage in human A375 cells assessed as abasic site formation at 3 uM preincubated for 1 hr followed by UV-irradiation for 2 hrs relative to control. Format: functional.

In the case of `NCC(=O)NCCC[C@H](N)C(=O)Nc1ccc(C#Cc2c(F)c(F)nc(F)c2F)cc1`, the pKa at 10 µM in series [1] amounted to 7. Also, the pKa at 1000 µM in [2] amounted to 7.2; in [3], 7.7. Moreover, the Kb in the series listed under Bos taurus [4] came out at 2830; in the series listed under Bos taurus [5], 10500; in the series listed under Bos taurus [6], 15000. Further, the KSV was 7 in series [7], 4.4 in [8] and 1.5 in series [9]. Also, the Ratio in the series listed under Bos taurus [10] was > 4. The result with Escherichia coli [11], in the series on Escherichia coli [12] and in the series on Escherichia coli [13] was Active.

Consider `C[C@H](N)C(=O)NC[C@H](N)C(=O)Nc1ccc(C#Cc2c(F)c(F)nc(F)c2F)cc1`, for which the pKa at 10 µM in [1] is 5.5; in series [14], 8.1. The results for the Kb in the series filed under Bos taurus [4], in the series listed under Bos taurus [5] and in the series listed under Bos taurus [6] were 5850, 15000 and 20500, respectively. In addition, the KSV in series [7] turned out to be 9; in [8], 4.9; in [9], 3.1. Besides, the Ratio in the series filed under Bos taurus [10] is 3.5. In addition, the result in the series on Escherichia coli [15] was Active.

`N[C@@H](Cc1c[nH]c2ccccc12)C(=O)NCCCC[C@H](N)C(=O)Nc1ccc(C#Cc2c(F)c(F)nc(F)c2F)cc1`: in series [1], the pKa at 10 µM was 7.3. The Kb in the series listed under Bos taurus [4] turned out to be 10400; in the series listed under Bos taurus [5], 16800; in the series listed under Bos taurus [6], 18000. The results for the KSV in series [7], in series [8] and in [9] were 26, 9.2 and 5.7, respectively. For the same compound, the Ratio in the series filed under Bos taurus [10] was found to be 1.7; in the series on Escherichia coli [22], 5.3; with Escherichia coli [23], 4.3. The Activity in the series with Escherichia coli [16] worked out at 0.7; in the series with Escherichia coli [17], 0.8; in the series with Escherichia coli [18] it was 0.9; with Escherichia coli [19], 0; in the series with Escherichia coli [20] it was 0.15; in the series with Escherichia coli [21], 0.2. For the same compound, the outcome in the series on Escherichia coli [11], with Escherichia coli [12] and with Escherichia coli [13] was Active.

With `N[C@@H](Cc1ccccc1)C(=O)NC[C@H](N)C(=O)Nc1ccc(C#Cc2c(F)c(F)nc(F)c2F)cc1`, the pKa at 10 µM was 6.3 in series [1] and 7.8 in series [14]. Also, the Kb was determined as 22300 in the series listed under Bos taurus [4], 14600 in the series filed under Bos taurus [5] and 23300 in the series filed under Bos taurus [6]. Besides, the KSV in series [7] was 9.4; in series [8], 5.9; in [9], 2.6. For the same compound, in the series filed under Bos taurus [10], the Ratio is 1.1.

With `C[C@H](N)C(=O)NCCCC[C@H](N)C(=O)Nc1ccc(C#Cc2c(F)c(F)nc(F)c2F)cc1`, the pKa at 10 µM in [1] came to 7.3. The pKa at 1000 µM in [2] was 7.3; in series [3], 7.4. Moreover, the values for the Kb in the series filed under Bos taurus [4], in the series filed under Bos taurus [5] and in the series listed under Bos taurus [6] were 2890, 8890 and 30300, respectively. Besides, the KSV is 6.8 in [7], 5.7 in [8] and 3.4 in [9]. Besides, the Ratio in the series listed under Bos taurus [10] turned out to be 10.5; in the series on Escherichia coli [24] it was 9.4; in the series on Escherichia coli [22] it was 9.1; in the series with Escherichia coli [23], 6.6. For the same compound, the Activity in the series with Escherichia coli [16] is 0.6; in the series on Escherichia coli [17], 1.7; with Escherichia coli [18] it was 1.9; in the series on Escherichia coli [19], 0.07; with Escherichia coli [20], 0.19; with Escherichia coli [21], 0.29.

In series [1], `N[C@@H](Cc1ccccc1)C(=O)NCCCC[C@H](N)C(=O)Nc1ccc(C#Cc2c(F)c(F)nc(F)c2F)cc1` showed a pKa at 10 µM of 7.3. For the same compound, the pKa at 1000 µM turned out to be 6.6 in [2] and 6.7 in series [3]. The Kb in the series filed under Bos taurus [4] worked out at 11700; in the series listed under Bos taurus [5] it was 13100; in the series filed under Bos taurus [6] it was 66700. Moreover, the KSV turned out to be 27.8 in [7], 9.2 in series [8] and 6.7 in series [9]. Besides, the Ratio in the series filed under Bos taurus [10] is 5.7; in the series on Escherichia coli [22], 8.04; with Escherichia coli [23], 8. In addition, the Activity is 0.7 in the series on Escherichia coli [16]; 1 with Escherichia coli [17]; 1.7 with Escherichia coli [18]; 0 in the series on Escherichia coli [19]; 0.13 with Escherichia coli [20]; 0.21 with Escherichia coli [21]. The Activity in the series on A-375 [25] was 17. In the series with A-375 [26], the “fold change (FC)” value is listed as 2.

`N[C@@H](Cc1ccccc1)C(=O)NCCC[C@H](N)C(=O)Nc1ccc(C#Cc2c(F)c(F)nc(F)c2F)cc1` registered a pKa at 10 µM in [1] of 7.1. For the same compound, the pKa at 1000 µM in series [2] and in series [3] was 7.2 throughout. The Kb in the series filed under Bos taurus [4] turned out to be 10700; in the series filed under Bos taurus [5], 12700; in the series listed under Bos taurus [6], 32100. Further, the figures for the KSV in series [7], in series [8] and in [9] were 27.8, 23.6 and 6.3, respectively. Moreover, the Ratio in the series filed under Bos taurus [10] was determined as 3. Also, the result in the series on Escherichia coli [15] and in the series with Escherichia coli [12] was Active.

In turn, `C[C@H](N)C(=O)NCCC[C@H](N)C(=O)Nc1ccc(C#Cc2c(F)c(F)nc(F)c2F)cc1` came in with a pKa at 10 µM in series [1] of 6.6. Also, the pKa at 1000 µM in [2] is 7; in [3], 7.8. The Kb is 4440 in the series filed under Bos taurus [4], 6750 in the series filed under Bos taurus [5] and 20200 in the series listed under Bos taurus [6]. Besides, the values for the KSV in series [7], in series [8] and in series [9] were 11.1, 7.8 and 5.2, respectively. Further, in the series filed under Bos taurus [10], the Ratio was found to be 4.6. The outcome in the series with Escherichia coli [15] was Active.
